Assay results: US9427456B2, “Peptide therapy for increasing platelet levels” (Biokine Therapeutics Ltd., priority 2009, dated 2016)
Entries after “also recorded” stand apart in the source; their conditions may differ.

B1: granulocyte-colony stimulating factor (protein, UniProt P09919 31-207, looked up)
Granulocyte …: TPLGPASSLPQSFLLKCLEQVRKIQGDGAALQEKLVSECATYKLCHPEELVLLGHSLGIPWAPLSSCPSQALQLAGCLSQLHSGLFLYQGLLQALEGISPELGPTLDTLQLDVADFATTIWQQMEELGMAPALQPTQGAMPAFASAFQRRAGGVLVASHLQSFLEVSYRVLRHLAQP
notes: granulocyte-colony stimulating factor, s.c. injected daily at 5 μg/mouse

Tests used:
blood platelets [1] = experiment: Blood platelet counts in healthy mice after s.c. injection; type: in vivo, C57BL/6 mice; settings: for Platelets (×10^3): blood at day 5, s.c., 4F-benzoyl-TN14003 100 ug/mouse (5 mg/Kg) once a day for 5 days, TPO 0.5 ug/mouse 3 times once a day (days 3-5 in combination); for % increase (platelet counts): versus PBS control, day 5, same regimens as platelet counts
Experimental: Female C57BL/6 mice (7-8 weeks old) were purchased from Harlan Israel and maintained under specific pathogen-free conditions at the Hebrew University Animal Facility (Jerusalem, Israel).
(§1) 4F-benzoyl-TN14003 and Thrombopoietin were reconstituted in PBS at various concentrations. Mice were injected subcutaneously in a total volume of 200 μl. 4F-benzoyl-TN14003 (100 ug/mouse, 5 mg/Kg) was injected for 5 days, once a day and at day 5 blood was collected and tested for platelets counts and hematopoietic colonies were tested in the bone marrow. Thrombopoietin was injected 3 times once a day, at (0.5 ug/mouse), and blood was collected and tested for platelets counts and hematopoietic colonies were tested in the bone marrow at day 5. In another group 4F-benzoyl-TN14003 (100 ug/mouse) was injected for 5 days, once a day and at days 3, 4 and 5 mice were further injected with Thrombopoietin (namely 3 times once a day, at 0.5 ug/mouse). Blood was collected and tested for platelets counts and hematopoietic colonies were tested in the bone marrow at day 5. Control mice were injected with PBS at the appropriate volume and blood was collected and tested for platelets counts and hematopoietic colonies in the bone marrow at day 5.
In the experiments described in FIG. 2, mice were injected subcutaneously with 4F-benzoyl-TN14003 at a dose of 5 mg/kg, administered either as a once daily injection or divided into two doses administered b.i.d. Blood platelet levels were measured 1, 2 or 3 days later.
In FIG. 3, “Male control” and “Female control” indicate PBS-treated male and female mice, respectively; “Male+4FB-T140” and “Female+4FB-T140” indicate male or female mice treated with 4F-benzoyl-TN14003 (5 mg/kg)

[2] = test system: hematopoietic precursor cells in the bone marrow; experiment: Hematopoietic progenitor cells (HPCs) colony-forming cell assay, bone marrow of treated mice; type: in vivo, C57BL/6 mice; settings: bone marrow at day 5; colonies scored after seven days of culture; same regimens as Table 2
Experimental: as §1
In order to evaluate the number of progenitor cells in the Bone marrow, a colony-forming cell assay was used for the production of hematopoietic colonies following treatments. […] Seven days later, typical colonies were visually scored by morphologic criteria using a light microscope.

blood platelets [3] = experiment: Chemotherapy (5FU)-induced thrombocytopenia model in mice; type: in vivo; settings: for Levels of platelets in blood before and after 5FU: 5FU 150 mg/kg i.p. day 0, peptide 5 mg/Kg s.c. daily 5 days before and from day 1 after 5FU, G-CSF 5 μg/mouse daily from day 1, TPO 0.5 μg/mouse 3 days before 5FU, FIG. 4-6
Experimental: In the chemotherapy experiments 5-fluorouracil (5FU) at 150 mg/kg was dissolved in saline and injected intraperitoneally (on day 0). The mice were treated with 4F-benzoyl-TN14003 (5 mg/Kg) for 5 days or with TPO (0.5 μg/mouse) for 3 days before treatment with 5FU. 4F-benzoyl-TN14003 treated mice were further treated daily with 4F-benzoyl-TN14003 (5 mg/Kg) one day after 5FU administration and the treatment was continued until the end of the experiment. Blood samples were collected 1 hr following 4F-benzoyl-TN14003 administration or control (PBS) injection]; total blood counts were tested by American Medical Laboratories, Israel. In some experiments, G-CSF was s.c. injected daily, one day after 5FU administration until the end of the experiment, at final concentration of 5 μg/mouse in total volume of 0.2 ml.
The platelet modulating effects were then examined in a chemotherapy-induced thrombocytopenia model in mice. In these experiments, 5-fluorouracil (“5FU”) at 150 mg/kg dissolved in saline was injected intraperitoneally to all mice (on day 0). Some of the mice were further treated with 4F-benzoyl-TN14003 (5 mg/Kg, once daily S.C. injections) for 5 days before treatment with 5FU, and Mice were further treated daily with 4F-benzoyl-TN14003 (5 mg/Kg) one day after 5FU and the treatment was continued until the end of the experiment. Blood samples were collected 1 hr following administration of 4F-benzoyl-TN14003 or control (PBS) injection. […] In FIG. 4, diamonds represent control (PBS treated) mice; open squares represent 4F-benzoyl-TN14003 treated mice.
Next, the effect of the peptide on mice treated with 5FU with or without G-CSF was examined. G-CSF administration (as daily S.C. injections, 5 μg/mouse) was initiated one day after 5FU treatment and continued until the end of the experiment. 5FU and 4F-benzoyl-TN14003 administration and blood sample collection were as specified above for FIG. 4. […] In FIG. 5, diamonds represent control (PBS treated) mice; open squares represent 4F-benzoyl-TN14003 treated mice; triangles represent G-CSF treated mice; and crosses represent mice treated with G-CSF and 4F-benzoyl-TN14003.
The activity of the peptide in the chemotherapy-induced thrombocytopenia model was then compared to that of TPO. In the TPO group, mice were treated with a single dose of TPO (0.5 μg/mouse) for 3 days before treatment with 5FU. 5FU and 4F-benzoyl-TN14003 administration and blood sample collection were as specified above for FIG. 4. […] In FIG. 6, diamonds represent control (PBS treated) mice; open squares represent 4F-benzoyl-TN14003 treated mice; and triangles represent TPO treated mice.

blood platelets [4] = experiment: Clinical study: single dose in Multiple Myeloma patients receiving Cyclophosphamide and G-CSF, blood platelet levels; type: in vivo, human
Experimental: A Phase […], non-Randomized, Open Label, Single Dose, Dose-Escalation, Safety Study of 4F-benzoyl-TN14003 was conducted in patients with Multiple Myeloma (MM) receiving G-CSF for inducing mobilization of progenitor stem cells from the Bone Marrow to the peripheral blood.
All eligible patients received, in an ambulatory setting, as part of their planned therapy: Cyclophosphamide—(the generic name for Cytoxan, Neosar), 4 gr/m^2 according to the accepted MM practice. G-CSF (neupogen) was initiated 5 days later and continued until the end of stem cell collection, administered SC at 5 μg/kg per day every day after 18:00. Monitoring the WBC and platelets was done after 7 and 10 days, and until stem cell collection. Stem cell collection was performed according to the protocol of WBC over 1,000 cells.
4F-benzoyl-TN14003 was injected after 10 days, as a single dose of 30, 100, 300 or 900 μg/Kg. The follow-up post injection included counting WBC and platelets levels at points of 30 min, 1 hr, 2 hr, 4 hr, 8 hr, 24 hr.
MM patients undergoing chemotherapy with Cyclophosphamide, received G-CSF according to a clinical protocol for inducing HPC mobilization for subsequent harvesting and transplantation. 10 days after Cyclophosphamide and G-CSF treatment, the patients received 4F-benzoyl-TN14003 injected at a dose of 0.9 mg/kg. […]

Molecule	Platelets (×10^3) (blood platelets [1])	% increase (platelet counts) (blood platelets [1]) [%]	Colonies (HPC counts, colony forming cells in bone marrow) [2]	Levels of platelets in blood before and after 5FU (blood platelets [3])	Blood platelet levels after a single injection (blood platelets [1]; 5 mg/kg s.c., once daily or divided b.i.d., measured 1, 2 or 3 days later, FIG. 2)	Blood platelet levels in male and female mice (blood platelets [1]; 5 mg/kg, measured 3 days post administration, FIG. 3)	Effect on TPO activity in enhancing platelets levels (blood platelets [1]; combination with TPO, mice, FIG. 1)	Potency relative to TPO in stimulating production of platelets (blood platelets [1]; healthy C57B1 mice)	Platelet levels after 10 days of administration, compared with TPO and control (blood platelets [3]; 5FU model, FIG. 6)	Potency relative to TPO in enhancing platelet levels and reducing chemotherapy-induced thrombocytopenia (blood platelets [3]; thrombocytopenia induced by chemotherapy)	Time after administration at which platelet increase could be detected (blood platelets [4]; 0.9 mg/kg single injection, MM patients) [min]	Number of platelets in the blood after single injection (blood platelets [4]; 0.9 mg/kg, 10 days after Cyclophosphamide and G-CSF, still observed after 1, 2, 4 or 8 hours, FIG. 7)
Thrombopoietin [TPO]	1556 ×10^3	32	150.2	elevated blood platelet levels before or after 5FU administration								
4F-benzoyl-Arg-Arg-Nal-Cys-Tyr-Cit-Lys-DLys-Pro-Tyr-Arg-Cit-Cys-Arg-NH2 [4F-benzoyl-TN14003]	1551 ×10^3	32	148.2	enhanced the levels of platelets in blood before and after treatment with 5FU; also recorded: elevated blood platelet levels before or after 5FU administration	significant elevation in blood platelet levels	enhanced blood platelet levels	potentiates the activity of TPO in enhancing platelets levels in vivo	as potent as TPO	higher in 4F-benzoyl-TN14003-treated mice than in TPO-treated mice or control mice	more potent than TPO	30	immediate increase in the number of platelets in the blood
B1				no effect on blood platelet levels; also recorded: had no effect on platelet levels								
